Data reported in US9427415B2, “Methods and compositions for modifying sensorial perception” (The Procter & Gamble Company, priority 2014, dated 2016).
Like-named read-outs stand apart in the source and are kept apart here.

Legend:
[1] = molecular target: T1, human TRPA1 (Homo sapiens, UniProt O75762, K186N/R3C/R58T); assay: Intracellular calcium (Fluo-4, FLIPR) activation of TRPA1 cells by GRAS compounds; assay type: cell-based; settings: for activation at 1000 µM / activation at 100 µM: read-out: A1 activation, % of agonist value;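 for all read-outs here: TRPA1-expressing cells, fluorescence read on a FLIPR Tetra (ex 488 nm, em 514 nm) every 2 s for 10 min after compound addition, baseline subtracted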
T1 construct: expressed in transfected cells; pcDNA3 control cells

[2] = test system: TRPA1V1; assay: Intracellular calcium (Fluo-4, FLIPR) activation of TRPA1V1 cells (co-expressing TRPA1 and TRPV1) by GRAS compounds; assay type: cell-based, human;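 note: HEK293 cells co-expressing TRPA1 and TRPV1, fluorescence read at 488/514 nm after baseline subtraction, recorded every 2 s over 10 min, ionomycin 10 µM and buffer as controls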
[3] = molecular target: T2, human TRPV1 (Homo sapiens, UniProt Q8NER1, M315I/T336M); assay: Intracellular calcium (Fluo-4, FLIPR) activation of TRPV1 cells by GRAS compounds; assay type: cell-based; settings: for activation at 1000 µM / activation at 100 µM: read-out: V1 activation, % of agonist value; for TRPV1 activation selectivity, in words: statement in description, see Table 1(i);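 for all read-outs here: TRPV1-expressing cells, FLIPR fluorescence at 488/514 nm with baseline subtracted, sampled every 2 s for 10 min after adding compound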
T2 construct: expressed in transfected cells; pcDNA3 control cells

[4] = Table 1(b), 1 mM, relative to AITC 30 μM
[5] = Table 1(b), 1 mM, relative to capsaicin 350 nM
[6] = Table 1(a), 1 mM, relative to AITC 30 μM, average of three plates
[7] = Table 1(a), 1 mM, relative to capsaicin 350 nM, average of three plates
[8] = Table 1(c), 1 mM, relative to AITC 30 μM
[9] = Table 1(i), 100 μM (*), relative to AITC 30 μM, […]
[10] = Table 1(i), 100 μM (*), relative to AITC 30 μM or capsaicin 350 nM depending on compound, […]
[11] = Table 1(i), 100 μM (*), relative to capsaicin 350 nM, […]
[12] = Table 1(i), 1 mM, relative to AITC 30 μM, […]
[13] = Table 1(i), 1 mM, relative to AITC 30 μM or capsaicin 350 nM depending on compound, […]
[14] = Table 1(i), 1 mM, relative to capsaicin 350 nM, […]
[15] = Table 1(a), 100 μM (*), relative to AITC 30 μM
[16] = Table 1(b), 100 μM (*), relative to AITC 30 μM

T1 sequence (O75762 whole entry R3C/R58T/K186N): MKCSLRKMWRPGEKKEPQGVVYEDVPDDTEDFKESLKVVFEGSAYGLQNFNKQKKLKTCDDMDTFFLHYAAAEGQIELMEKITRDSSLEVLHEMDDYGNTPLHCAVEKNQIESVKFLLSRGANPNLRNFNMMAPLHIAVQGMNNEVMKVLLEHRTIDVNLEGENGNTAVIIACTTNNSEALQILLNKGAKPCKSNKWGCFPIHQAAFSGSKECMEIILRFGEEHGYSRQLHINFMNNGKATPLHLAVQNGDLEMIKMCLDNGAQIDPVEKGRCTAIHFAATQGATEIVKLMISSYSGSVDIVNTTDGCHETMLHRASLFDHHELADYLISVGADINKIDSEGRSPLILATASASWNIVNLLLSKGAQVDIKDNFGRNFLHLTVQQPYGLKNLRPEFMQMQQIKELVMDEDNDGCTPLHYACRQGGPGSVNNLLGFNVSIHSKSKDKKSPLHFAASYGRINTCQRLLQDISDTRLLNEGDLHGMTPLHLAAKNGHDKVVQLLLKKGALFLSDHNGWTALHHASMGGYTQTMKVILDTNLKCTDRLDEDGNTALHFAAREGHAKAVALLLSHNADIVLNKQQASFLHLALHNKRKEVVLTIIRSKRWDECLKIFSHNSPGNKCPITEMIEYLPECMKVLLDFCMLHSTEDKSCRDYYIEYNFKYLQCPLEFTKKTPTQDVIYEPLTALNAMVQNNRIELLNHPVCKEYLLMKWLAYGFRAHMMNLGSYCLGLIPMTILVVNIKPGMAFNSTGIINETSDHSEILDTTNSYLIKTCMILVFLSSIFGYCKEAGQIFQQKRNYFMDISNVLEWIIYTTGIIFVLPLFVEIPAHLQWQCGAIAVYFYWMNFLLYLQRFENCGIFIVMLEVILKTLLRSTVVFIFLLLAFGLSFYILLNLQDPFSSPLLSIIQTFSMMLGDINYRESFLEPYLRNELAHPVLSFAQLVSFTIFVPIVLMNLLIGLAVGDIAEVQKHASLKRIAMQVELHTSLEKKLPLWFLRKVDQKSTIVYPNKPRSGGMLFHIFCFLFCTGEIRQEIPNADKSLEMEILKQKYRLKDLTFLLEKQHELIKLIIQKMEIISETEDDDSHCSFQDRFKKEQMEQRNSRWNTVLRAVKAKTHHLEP
T2 sequence (Q8NER1 whole entry M315I/T336M): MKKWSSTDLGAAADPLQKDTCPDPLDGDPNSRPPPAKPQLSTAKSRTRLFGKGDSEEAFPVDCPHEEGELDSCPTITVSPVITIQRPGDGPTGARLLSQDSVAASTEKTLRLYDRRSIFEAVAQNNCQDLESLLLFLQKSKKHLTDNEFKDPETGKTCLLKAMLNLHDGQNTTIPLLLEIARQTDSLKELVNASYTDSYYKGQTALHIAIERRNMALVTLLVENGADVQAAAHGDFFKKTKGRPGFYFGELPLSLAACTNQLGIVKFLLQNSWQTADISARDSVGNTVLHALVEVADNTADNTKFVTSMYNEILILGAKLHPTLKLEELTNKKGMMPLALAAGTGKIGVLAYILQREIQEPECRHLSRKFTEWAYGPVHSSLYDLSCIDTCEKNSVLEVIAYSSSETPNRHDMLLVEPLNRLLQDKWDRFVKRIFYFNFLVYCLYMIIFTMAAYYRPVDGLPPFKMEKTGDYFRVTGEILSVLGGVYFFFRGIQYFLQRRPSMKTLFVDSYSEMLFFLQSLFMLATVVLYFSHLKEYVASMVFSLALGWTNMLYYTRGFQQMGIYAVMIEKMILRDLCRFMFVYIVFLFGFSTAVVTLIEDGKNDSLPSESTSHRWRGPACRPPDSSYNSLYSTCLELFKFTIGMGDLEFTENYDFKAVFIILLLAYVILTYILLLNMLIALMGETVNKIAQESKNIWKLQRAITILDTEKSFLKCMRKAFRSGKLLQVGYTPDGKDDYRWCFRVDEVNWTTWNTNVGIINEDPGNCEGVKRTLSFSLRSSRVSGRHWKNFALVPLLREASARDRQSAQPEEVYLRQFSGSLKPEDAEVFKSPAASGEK

CCCCCC(O)CC(=O)OCC (stereo not drawn) [Ethyl 3-hydroxyoctanoate]
activation at 1000 µM [1, 4]: 97.3% | A1V1 activation, % of agonist value [2, 4]: 76.90% | activation at 1000 µM [3, 5]: 28.1%

CC(C)=CCCC(C)=CCCC(C)=CC=O [Farnesal]
A1 activation, % of agonist value [1, 6]: 97.58% | A1V1 activation, % of agonist value [2, 6]: 104.4% | V1 activation, % of agonist value [3, 7]: 41.22%

CCCCCC1CCC(=O)O1 (stereo not drawn) [Gamma-Nonalactone]
A1 activation, % of agonist value [1, 6]: 33.32% | A1V1 activation, % of agonist value [2, 6]: 69.15% | V1 activation, % of agonist value [3, 7]: 66.34%

CC(C)=CCC/C(C)=C/CO [Geraniol]
activation at 1000 µM [1, 4]: 82.5% | A1V1 activation, % of agonist value [2]: 63.93% | activation at 1000 µM [3]: 42.2%

CCCC(=O)OC/C=C(\C)CCC=C(C)C [Geranyl butyrate]
activation at 1000 µM [1, 6]: 76.9% | A1V1 activation, % of agonist value [2, 6]: 76.26% | activation at 1000 µM [3, 7]: 28.9%

CCCCCC1C(=O)CCC1CC(=O)OC (stereo not drawn) [Hedione, Methyl dihydrojasmonate]
activation at 1000 µM [1, 4]: 43.5% | activation at 1000 µM [1, 8]: 54.4% | A1V1 activation, % of agonist value [2, 4]: 60.64% | A1V1 activation, % of agonist value [2, 8]: 59.58% | activation at 1000 µM [3, 5]: 25.6%

CC(C=O)Cc1ccc2c(c1)OCO2 (stereo not drawn) [Helional]
A1 activation, % of agonist value [1, 6]: 78.00% | A1V1 activation, % of agonist value [2, 6]: 71.85% | V1 activation, % of agonist value [3, 7]: 23.38%

CCCCCCC=O [Heptaldehyde]
activation at 100 µM [1, 9]: 4.3% | A1V1 activation, % of agonist value [2, 10]: 2.4% | activation at 100 µM [3, 11]: 65.3% | TRPV1 activation selectivity, in words [3]: TRPV1 activators which do not modulate TRPA1 or TRPA1V1

CC(C)CCOC(=O)CCc1ccco1 [Isoamyl 3-(2-furan)propionate]
A1 activation, % of agonist value [1, 4]: 123.3% | A1V1 activation, % of agonist value [2, 4]: 106.9% | V1 activation, % of agonist value [3, 5]: 32.66%

S=C=NCc1ccccc1 [Isothiocyanic acid, benzyl ester]
activation at 1000 µM [1, 6]: 110% | A1V1 activation, % of agonist value [2, 6]: 180.5% | activation at 1000 µM [3, 7]: 59.2%

CCCCC/C=C\C/C=C\CCCCCCCC(=O)O [Linoleic acid]
activation at 1000 µM [1, 6]: 170% | A1V1 activation, % of agonist value [2, 6]: 170.4% | activation at 1000 µM [3, 7]: 24.9%

O=C(O)CC(O)C(=O)O (stereo not drawn) [Malic acid]
activation at 1000 µM [1, 12]: 1.9% | A1V1 activation, % of agonist value [2, 13]: 2.4% | activation at 1000 µM [3, 14]: 67.5% | TRPV1 activation selectivity, in words [3]: TRPV1 activators which do not modulate TRPA1 or TRPA1V1

COC(=O)C1CCCCC1 [Methyl cyclohexanecarboxylate]
activation at 1000 µM [1, 4]: 45.5% | A1V1 activation, % of agonist value [2, 4]: 85.17% | activation at 1000 µM [3, 5]: 69.5%

CC/C=C\C/C=C\C/C=C\CCCCCCCC(=O)OC [Methyl linolenate]
activation at 1000 µM [1, 6]: 108% | A1V1 activation, % of agonist value [2, 6]: 104% | activation at 1000 µM [3, 7]: 31%

CCCCCCCCC(=O)NCc1ccc(O)c(OC)c1 [Nonivamide, N-Vanillylnonanamide]
activation at 100 µM [1]: 69% | A1V1 activation, % of agonist value ([2]; Table 1(g), 1 mM, relative to capsaicin 350 nM): 135.6% | A1V1 activation, % of agonist value ([2]; Table 1(i), 100 μM (*), relative to AITC 30 μM or capsaicin 350 nM depending on compound, values less than 20-25% considered inactive): 1.2% | activation at 100 µM [3]: 65.5% | activation at 1000 µM [3]: 91.4%

C=C(C)[C@@H]1CC=C(CO)CC1 [Perillyl alcohol]
activation at 1000 µM [1, 6]: 82% | A1V1 activation, % of agonist value [2, 6]: 73.28% | activation at 1000 µM [3, 7]: 20.4%

O=C(O)C(=O)Cc1ccccc1 [Phenylpyruvic acid]
activation at 1000 µM [1, 6]: 68% | A1V1 activation, % of agonist value [2, 6]: 74.05% | activation at 1000 µM [3, 7]: 32.5%

O=C(CCc1ccc(O)cc1)c1c(O)cc(O)cc1O [Phloretin]
activation at 100 µM [1, 15]: 160% | A1V1 activation, % of agonist value [2, 15]: 174.3% | activation at 100 µM ([3]; Table 1(a), 100 μM (*), relative to capsaicin 350 nM): 122%

CC1=CC(=O)C(C(C)C)CC1 (stereo not drawn) [Piperitone]
activation at 1000 µM [1, 4]: 90.1% | A1V1 activation, % of agonist value [2, 4]: 109.1% | activation at 1000 µM [3, 5]: 53.3%

CC(=O)OCc1ccc2c(c1)OCO2 [Piperonyl acetate]
activation at 1000 µM [1]: 62.7% | A1V1 activation, % of agonist value [2, 4]: 78.00% | activation at 1000 µM [3]: 20.9%

CC(C)C(=O)OCc1ccc2c(c1)OCO2 [Piperonyl isobutyrate]
activation at 1000 µM [1, 4]: 61% | A1V1 activation, % of agonist value [2, 4]: 82.33% | activation at 1000 µM [3, 5]: 30%

CCCSSc1ccoc1C [Propyl 2-methyl-3-furyl disulfide]
activation at 1000 µM [1, 6]: 210% | activation at 1000 µM [1, 8]: 266% | A1V1 activation, % of agonist value [2, 6]: 194.3% | A1V1 activation, % of agonist value [2, 8]: 242.5% | activation at 1000 µM [3, 7]: 25%

CCCOC(=O)c1ccc(O)cc1 [Propylparaben]
activation at 1000 µM [1, 12]: 93.2% | TRPA1 activation selectivity, in words ([1]; statement in description, see Table 1(i)): TRPA1 activator which does not modulate TRPV1 or TRPA1V1 | A1V1 activation, % of agonist value [2, 13]: 2.1% | activation at 1000 µM [3, 14]: 1.6%

CC(=O)/C=C/C=C(\C)CCC=C(C)C [Pseudoionone]
A1 activation, % of agonist value [1, 6]: 105.5% | A1V1 activation, % of agonist value [2, 6]: 127.2% | V1 activation, % of agonist value [3, 7]: 20.76%

CC/C=C\CCOC(=O)C(C)=O [Pyruvic caid cis-3-hexen-1-yl ester]
A1 activation, % of agonist value [1, 6]: 45% | A1V1 activation, % of agonist value [2, 6]: 40% | V1 activation, % of agonist value [3, 7]: 21%

CCCCCCCCCCCCCCCC(=O)OC/C=C(C)/C=C/C=C(C)/C=C/C1=C(C)CCCC1(C)C [Retinol palmitate]
activation at 1000 µM [1, 6]: 76.4% | A1V1 activation, % of agonist value [2, 6]: 76.97% | activation at 1000 µM [3, 7]: 32.8%

O=C1NS(=O)(=O)c2ccccc21 [Saccharin]
activation at 1000 µM [1]: 92.6% | A1V1 activation, % of agonist value [2]: 93.25% | activation at 1000 µM [3]: 80.8%

Cc1ccc(C(C)C)c(O)c1 [Thymol]
activation at 1000 µM [1, 4]: 159% | A1V1 activation, % of agonist value [2, 4]: 105.7% | activation at 1000 µM [3, 5]: 106%

CCCCCC/C=C/C=C/C=O [Trans,trans-2,4-undecadien-1-al]
activation at 100 µM [1, 16]: 74% | activation at 1000 µM [1, 8]: 86.4% | A1V1 activation, % of agonist value [2, 16]: 38.4% | A1V1 activation, % of agonist value [2, 8]: 85.4% | activation at 100 µM ([3]; Table 1(b), 100 μM (*), relative to capsaicin 350 nM): 87.5%

CCCCC/C=C/CO [Trans-2-Octen-1-ol]
activation at 1000 µM [1, 6]: 118% | A1V1 activation, % of agonist value [2, 6]: 103.2% | activation at 1000 µM [3, 7]: 26%

COc1cc(C2OCC(C)O2)ccc1O (stereo not drawn) [Vanillin propylene glycol acetal]
A1 activation, % of agonist value [1, 4]: 76.21% | A1V1 activation, % of agonist value [2, 4]: 94.49% | V1 activation, % of agonist value [3, 5]: 57.97%

CCOCc1ccc(O)c(OC)c1 [Vanillyl ethyl ether]
activation at 1000 µM [1, 6]: 38% | A1V1 activation, % of agonist value [2, 6]: 59.64% | activation at 1000 µM [3, 7]: 67.6%

COc1cc(CCC(C)=O)ccc1O [Vanillylacetone]
activation at 1000 µM [1, 4]: 22.3% | A1V1 activation, % of agonist value [2, 4]: 37.75% | activation at 1000 µM [3, 5]: 60%

C=CCc1cccc(OC)c1O [o-Eugenol]
A1 activation, % of agonist value [1, 6]: 128.4% | A1V1 activation, % of agonist value [2, 6]: 158.3% | V1 activation, % of agonist value [3, 7]: 64.5%

Desoxycholic acid
A1 activation, % of agonist value [1, 9]: 3.2% | A1V1 activation, % of agonist value [2, 10]: 2.9% | V1 activation, % of agonist value [3, 11]: 84.4% | TRPV1 activation selectivity, in words [3]: TRPV1 activators which do not modulate TRPA1 or TRPA1V1
